#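 Growth conditions: 96-well plates. Treatment: test compound, 48 hours, 5 concentrations. Analysis: linear interpolation between bracketing concentrations; unreached endpoints set to highest concentration. TGI is the concentration that stops growth completely.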
# Experiments:
# Assay in all cases: inhibition of tumour cell growth, NCI panel, 48 h
# 786-0 renal = system: 786-0 renal
# SNB-78 CNS = system: SNB-78 CNS
# TK-10 renal = system: TK-10 renal
# SK-MEL-2 melanoma = system: SK-MEL-2 melanoma
# SF-268 CNS = system: SF-268 CNS
# SK-MEL-28 melanoma = system: SK-MEL-28 melanoma
# SN12C renal = system: SN12C renal
# OVCAR-8 ovarian = system: OVCAR-8 ovarian
# DMS 114 small cell lung = system: DMS 114 small cell lung
# NCI-H460 lung = system: NCI-H460 lung
# KM12 colon = system: KM12 colon
# SW-620 colon = system: SW-620 colon
# OVCAR-4 ovarian = system: OVCAR-4 ovarian
# A549 NSCLC = system: A549 NSCLC
# OVCAR-3 ovarian = system: OVCAR-3 ovarian
# CAKI-1 renal = system: CAKI-1 renal
# HCC-2998 colon = system: HCC-2998 colon
# UACC-257 melanoma = system: UACC-257 melanoma
# UO-31 renal = system: UO-31 renal
# IGROV1 ovarian = system: IGROV1 ovarian
# NCI-H226 lung = system: NCI-H226 lung
# K-562 leukemia = system: K-562 leukemia
# MALME-3M melanoma = system: MALME-3M melanoma
# KM20L2 colon = system: KM20L2 colon
# ACHN renal = system: ACHN renal
# A498 renal = system: A498 renal
# HT29 colon = system: HT29 colon
# UACC-62 melanoma = system: UACC-62 melanoma
# HOP-92 NSCLC = system: HOP-92 NSCLC
# SK-OV-3 ovarian = system: SK-OV-3 ovarian
# HCT-15 colon = system: HCT-15 colon
# RPMI-8226 leukemia = system: RPMI-8226 leukemia
# M19-MEL melanoma = system: M19-MEL melanoma
# HOP-62 NSCLC = system: HOP-62 NSCLC
# LOX IMVI melanoma = system: LOX IMVI melanoma
# SF-295 CNS = system: SF-295 CNS
# SNB-75 CNS = system: SNB-75 CNS
# LXFL 529 NSCLC = system: LXFL 529 NSCLC
# NCI-H23 lung = system: NCI-H23 lung
# MOLT-4 leukemia = system: MOLT-4 leukemia
# SNB-19 CNS = system: SNB-19 CNS
# SF-539 CNS = system: SF-539 CNS
# XF 498 CNS = system: XF 498 CNS
# NCI-H522 lung = system: NCI-H522 lung
# DMS 273 small cell lung = system: DMS 273 small cell lung
# COLO 205 colon = system: COLO 205 colon
# M14 melanoma = system: M14 melanoma
# DLD-1 colon = system: DLD-1 colon
# HL-60(TB) leukemia = system: HL-60(TB) leukemia
# RXF 393 renal = system: RXF 393 renal
# SK-MEL-5 melanoma = system: SK-MEL-5 melanoma
# CCRF-CEM leukemia = system: CCRF-CEM leukemia
# OVCAR-5 ovarian = system: OVCAR-5 ovarian
# RXF-631 renal = system: RXF-631 renal
# HCT-116 colon = system: HCT-116 colon
# HOP-18 NSCLC = system: HOP-18 NSCLC
# U251 CNS = system: U251 CNS
# EKVX NSCLC = system: EKVX NSCLC
smiles,measurement,setting,value
COC(=O)C(Cl)=C1CC1,TGI,786-0 renal,65.4 µM
same,TGI,SNB-78 CNS,> 100 µM
same,TGI,TK-10 renal,> 100 µM
same,TGI,SK-MEL-2 melanoma,> 100 µM
same,TGI,SF-268 CNS,> 100 µM
same,TGI,SK-MEL-28 melanoma,54.3 µM
same,TGI,SN12C renal,> 100 µM
same,TGI,OVCAR-8 ovarian,97.9 µM
same,TGI,DMS 114 small cell lung,95.6 µM
same,TGI,NCI-H460 lung,> 100 µM
same,TGI,KM12 colon,> 100 µM
same,TGI,SW-620 colon,37.1 µM
same,TGI,OVCAR-4 ovarian,> 100 µM
same,TGI,A549 NSCLC,> 100 µM
same,TGI,OVCAR-3 ovarian,65 µM
same,TGI,CAKI-1 renal,32.6 µM
same,TGI,HCC-2998 colon,> 100 µM
same,TGI,UACC-257 melanoma,> 100 µM
same,TGI,UO-31 renal,89.9 µM
same,TGI,IGROV1 ovarian,> 100 µM
same,TGI,NCI-H226 lung,> 100 µM
same,TGI,K-562 leukemia,60.5 µM
same,TGI,MALME-3M melanoma,46.5 µM
same,TGI,KM20L2 colon,> 100 µM
same,TGI,ACHN renal,49.2 µM
same,TGI,A498 renal,> 100 µM
same,TGI,HT29 colon,> 100 µM
same,TGI,UACC-62 melanoma,> 100 µM
same,TGI,HOP-92 NSCLC,29.1 µM
same,TGI,SK-OV-3 ovarian,> 100 µM
same,TGI,HCT-15 colon,57.6 µM
same,TGI,RPMI-8226 leukemia,60.4 µM
same,TGI,M19-MEL melanoma,> 100 µM
same,TGI,HOP-62 NSCLC,> 100 µM
same,TGI,LOX IMVI melanoma,59.6 µM
same,TGI,SF-295 CNS,> 100 µM
same,TGI,SNB-75 CNS,> 100 µM
same,TGI,LXFL 529 NSCLC,29.5 µM
same,TGI,NCI-H23 lung,> 100 µM
same,TGI,MOLT-4 leukemia,53.4 µM
same,TGI,SNB-19 CNS,> 100 µM
same,TGI,SF-539 CNS,69.1 µM
same,TGI,XF 498 CNS,88.7 µM
same,TGI,NCI-H522 lung,33.9 µM
same,TGI,DMS 273 small cell lung,> 100 µM
same,TGI,COLO 205 colon,38.3 µM
same,TGI,M14 melanoma,30.5 µM
same,TGI,DLD-1 colon,64.1 µM
same,TGI,HL-60(TB) leukemia,51.3 µM
same,TGI,RXF 393 renal,35.8 µM
same,TGI,SK-MEL-5 melanoma,84.9 µM
same,TGI,CCRF-CEM leukemia,42.2 µM
same,TGI,OVCAR-5 ovarian,> 100 µM
CN(C)CCNC(=O)c1cccc2[nH]c(-c3ccccc3)nc12,TGI,786-0 renal,> 100 µM
same,TGI,SNB-78 CNS,> 100 µM
same,TGI,TK-10 renal,59.9 µM
same,TGI,SK-MEL-2 melanoma,32.5 µM
same,TGI,SF-268 CNS,46.3 µM
same,TGI,RXF-631 renal,57.9 µM
same,TGI,SK-MEL-28 melanoma,32.5 µM
same,TGI,SN12C renal,43.7 µM
same,TGI,DMS 114 small cell lung,32.3 µM
same,TGI,NCI-H460 lung,39.8 µM
same,TGI,KM12 colon,66.4 µM
same,TGI,SW-620 colon,45.8 µM
same,TGI,OVCAR-4 ovarian,82.5 µM
same,TGI,A549 NSCLC,31.7 µM
same,TGI,OVCAR-3 ovarian,50.3 µM
same,TGI,CAKI-1 renal,92.9 µM
same,TGI,HCT-116 colon,27.5 µM
same,TGI,HCC-2998 colon,29.1 µM
same,TGI,UACC-257 melanoma,30.6 µM
same,TGI,UO-31 renal,27.7 µM
same,TGI,IGROV1 ovarian,50.9 µM
same,TGI,NCI-H226 lung,39.5 µM
same,TGI,K-562 leukemia,> 100 µM
same,TGI,HOP-18 NSCLC,46.1 µM
same,TGI,ACHN renal,33.3 µM
same,TGI,A498 renal,26.7 µM
same,TGI,HT29 colon,57 µM
same,TGI,UACC-62 melanoma,32.6 µM
same,TGI,HOP-92 NSCLC,42.1 µM
same,TGI,SK-OV-3 ovarian,56.3 µM
same,TGI,HCT-15 colon,34.5 µM
same,TGI,RPMI-8226 leukemia,91.5 µM
same,TGI,M19-MEL melanoma,33.5 µM
same,TGI,HOP-62 NSCLC,52.8 µM
same,TGI,LOX IMVI melanoma,29.7 µM
same,TGI,U251 CNS,65.1 µM
same,TGI,SF-295 CNS,> 100 µM
same,TGI,SNB-75 CNS,75.3 µM
same,TGI,NCI-H23 lung,32.6 µM
same,TGI,MOLT-4 leukemia,59.6 µM
same,TGI,SNB-19 CNS,> 100 µM
same,TGI,SF-539 CNS,26.2 µM
same,TGI,EKVX NSCLC,53.5 µM
same,TGI,DMS 273 small cell lung,39.6 µM
same,TGI,COLO 205 colon,24.7 µM
same,TGI,M14 melanoma,31.1 µM
same,TGI,DLD-1 colon,39.2 µM
same,TGI,HL-60(TB) leukemia,54.3 µM
same,TGI,RXF 393 renal,33.2 µM
same,TGI,SK-MEL-5 melanoma,28.4 µM
same,TGI,CCRF-CEM leukemia,> 100 µM
same,TGI,OVCAR-5 ovarian,34.6 µM
O=C1OC(O)C(Oc2ccc(Cl)cc2)=C1Cl (stereo not drawn),TGI,786-0 renal,> 100 µM
same,TGI,SNB-78 CNS,> 100 µM
same,TGI,TK-10 renal,> 100 µM
same,TGI,SK-MEL-2 melanoma,> 100 µM
same,TGI,SF-268 CNS,> 100 µM
same,TGI,RXF-631 renal,> 100 µM
same,TGI,SK-MEL-28 melanoma,> 100 µM
same,TGI,SN12C renal,> 100 µM
same,TGI,OVCAR-8 ovarian,> 100 µM
same,TGI,DMS 114 small cell lung,> 100 µM
same,TGI,NCI-H460 lung,> 100 µM
same,TGI,KM12 colon,> 100 µM
same,TGI,SW-620 colon,> 100 µM
same,TGI,OVCAR-4 ovarian,> 100 µM
same,TGI,A549 NSCLC,> 100 µM
same,TGI,OVCAR-3 ovarian,> 100 µM
same,TGI,CAKI-1 renal,> 100 µM
same,TGI,HCT-116 colon,> 100 µM
same,TGI,HCC-2998 colon,> 100 µM
same,TGI,UACC-257 melanoma,> 100 µM
same,TGI,UO-31 renal,> 100 µM
same,TGI,IGROV1 ovarian,> 100 µM
same,TGI,NCI-H226 lung,> 100 µM
same,TGI,K-562 leukemia,> 100 µM
same,TGI,MALME-3M melanoma,> 100 µM
same,TGI,KM20L2 colon,> 100 µM
same,TGI,ACHN renal,> 100 µM
same,TGI,A498 renal,> 100 µM
same,TGI,HT29 colon,> 100 µM
same,TGI,UACC-62 melanoma,> 100 µM
same,TGI,HOP-92 NSCLC,> 100 µM
same,TGI,SK-OV-3 ovarian,> 100 µM
same,TGI,HCT-15 colon,> 100 µM
same,TGI,RPMI-8226 leukemia,> 100 µM
same,TGI,M19-MEL melanoma,> 100 µM
same,TGI,HOP-62 NSCLC,> 100 µM
same,TGI,LOX IMVI melanoma,> 100 µM
same,TGI,U251 CNS,> 100 µM
same,TGI,SF-295 CNS,> 100 µM
same,TGI,SNB-75 CNS,> 100 µM
same,TGI,LXFL 529 NSCLC,> 100 µM
same,TGI,NCI-H23 lung,> 100 µM
same,TGI,MOLT-4 leukemia,> 100 µM
same,TGI,SNB-19 CNS,> 100 µM
same,TGI,SF-539 CNS,> 100 µM
same,TGI,EKVX NSCLC,> 100 µM
same,TGI,NCI-H522 lung,> 100 µM
same,TGI,DMS 273 small cell lung,> 100 µM
same,TGI,COLO 205 colon,> 100 µM
same,TGI,M14 melanoma,> 100 µM
same,TGI,DLD-1 colon,> 100 µM
same,TGI,HL-60(TB) leukemia,> 100 µM
same,TGI,RXF 393 renal,> 100 µM
same,TGI,CCRF-CEM leukemia,> 100 µM
same,TGI,OVCAR-5 ovarian,> 100 µM
CC(=O)O[C@H]1C(=O)[C@@]2(C)C(C(OC(=O)c3ccccc3)[C@]3(O)CC(OC(=O)C(O)C(NC(=O)c4ccc(C)cc4)c4ccccc4)C(C)=C1C3(C)C)[C@]1(OC(C)=O)CO[C@@H]1C[C@@H]2O (stereo partly drawn),TGI,786-0 renal,> 25 µM
same,TGI,SNB-78 CNS,> 25 µM
same,TGI,TK-10 renal,9.47 µM
same,TGI,SK-MEL-2 melanoma,0.0141 µM
same,TGI,SF-268 CNS,> 25 µM
same,TGI,SN12C renal,> 25 µM
same,TGI,OVCAR-8 ovarian,> 25 µM
same,TGI,DMS 114 small cell lung,< 0.0025 µM
same,TGI,NCI-H460 lung,> 25 µM
same,TGI,KM12 colon,19.8 µM
same,TGI,OVCAR-4 ovarian,> 25 µM
same,TGI,A549 NSCLC,> 25 µM
same,TGI,OVCAR-3 ovarian,< 0.0025 µM
same,TGI,CAKI-1 renal,11.1 µM
same,TGI,HCT-116 colon,0.411 µM
same,TGI,UACC-257 melanoma,> 25 µM
same,TGI,UO-31 renal,9.23 µM
same,TGI,IGROV1 ovarian,0.101 µM
same,TGI,K-562 leukemia,5.77 µM
same,TGI,MALME-3M melanoma,11.5 µM
same,TGI,ACHN renal,> 25 µM
same,TGI,A498 renal,14.1 µM
same,TGI,UACC-62 melanoma,7.44 µM
same,TGI,SK-OV-3 ovarian,0.0284 µM
same,TGI,HCT-15 colon,3.29 µM
same,TGI,RPMI-8226 leukemia,6.77 µM
same,TGI,M19-MEL melanoma,4.23 µM
same,TGI,HOP-62 NSCLC,14.1 µM
same,TGI,LOX IMVI melanoma,7.77 µM
same,TGI,U251 CNS,> 25 µM
same,TGI,SF-295 CNS,0.107 µM
same,TGI,SNB-75 CNS,0.0486 µM
same,TGI,LXFL 529 NSCLC,> 25 µM
same,TGI,NCI-H23 lung,> 25 µM
same,TGI,MOLT-4 leukemia,7.39 µM
same,TGI,SNB-19 CNS,16.7 µM
same,TGI,SF-539 CNS,0.0119 µM
same,TGI,XF 498 CNS,0.0201 µM
same,TGI,EKVX NSCLC,> 25 µM
same,TGI,NCI-H522 lung,< 0.0025 µM
same,TGI,DMS 273 small cell lung,3.25 µM
same,TGI,COLO 205 colon,0.00736 µM
same,TGI,DLD-1 colon,15.4 µM
same,TGI,HL-60(TB) leukemia,3.35 µM
same,TGI,RXF 393 renal,0.143 µM
same,TGI,SK-MEL-5 melanoma,16.8 µM
same,TGI,CCRF-CEM leukemia,> 25 µM
same,TGI,OVCAR-5 ovarian,3.98 µM

# Source: PubChem BioAssay (NCI)
